This note sets out measurements from patent publication US8283358B2, “N-sulfonamido polycyclic pyrazolyl compounds” (Elan Pharmaceuticals, Inc., priority 2008, dated 2012).

In this assay the test system is gamma secretase in CHO cells expressing APPSwe, NotchΔE and a Notch responsive luciferase reporter gene (SNC-204B8). Briefly: SNC dual cell assay for simultaneous assay of A-beta reduction and Notch signaling (Example D). The conditions noted are these: ratio of Notch IC50/Aβ EC50 determined as described in Example D (SNC dual cell assay).
Description: In order to facilitate testing the potency of gamma-secretase inhibitors on two substrates (APP and Notch) simultaneously, a dual-assay using a CHO cell line stably expressing APPSwe, a Notch substrate lacking the ecto-domain, and a Notch responsive Luciferase reporter gene was developed. CHOSwe cells stably over-express the Swedish FAD isoform of APP, and secrete large amounts of Aβ peptide into the conditioned media from endogenous β- and γ-secretase enzyme activity. A Notch intracellular domain (NICD) responsive reporter gene, and the constitutive gamma-secretase Notch substrate, NotchΔE, were stably introduced into CHOSwe cells in a two step process. CHOSwe cells were first stably transfected to express a NICD responsive luciferase reporter gene construct (pGL2-CBF-Luc). […] Stable cell lines expressing rat NotchΔE were then identified in the second step by including a gamma-secretase inhibitor in the selection process (to suppress Notch/NICD toxicity) following transfection of the rat Notch-ΔE construct. […] This vector drives expression of a truncated rat Notch construct corresponding to the c-terminal product following ecto-domain shedding of full length rat Notch protein. The c-terminal product is a constitutive substrate for gamma-secretase cleavage, resulting in release of the cytoplasmic Notch intracellular domain (NICD) product, which translocates to the nucleus and relieves CBF repressed genes. Subsequently, pIRES-ZEDN transfected cells were re-plated at low density in the presence of test compound, and selected with three antibiotics (G418 (0.5 mg/ml)/Hygro (1 mg/ml)/Puro (2.5 mg/ml)). The antibiotic-resistant colonies (named SNC clones for the dual-assay components: APPSwe/NotchΔE/CBF) were isolated and expanded for characterization of Aβ secretion, and NICD responsive reporter gene activity (i.e. luciferase signal in the presence versus absence of test compound). […] A typical dual-assay experiment was performed as follows: Day 1, the SNC cells were plated in 96-well assay plates in inhibitor-free media. Day 2, the cells were fed with fresh media (inhibitor free) and treated with test compounds over a concentration range 0 nM to 40,000 nM (in 10× incremental dilutions) one hour after the media change. The cells were treated with compounds overnight at 37° C. […] For the Notch signaling assay, the cells were lysed and luciferase activity from the lysate was measured using the Promega kit (see below). Day 4, Aβ-ELISA part II was conducted using 3D6-biotin/AP-streptavidin antibodies.
`Cc1cc(C2CC3Cc4[nH]ncc4C(C2)N3S(=O)(=O)c2ccc(Cl)cc2)on1` (racemic) [(±)-10-[(4-chlorophenyl)sulfonyl]-6-(3-methylisoxazol-5-yl)-4,5,6,7,8,9-hexahydro-1H-4,8-epiminocycloocta[c]pyrazole]: the “Selectivity Ratio (Notch IC50/Aβ ED50)” value is “(++++) ((++++) means a ratio of Notch IC50/Aβ EC50 (determined as described in Example D) of >200)”.

As for `O=S(=O)(c1ccc(C(F)(F)F)nc1)N1C2Cc3[nH]ncc3C1CC(c1nc(C(F)(F)F)cs1)C2` (racemic) [(±)-10-{[6-(trifluoromethyl)pyridin-3-yl]sulfonyl}-6-[4-(trifluoromethyl)-1,3-thiazol-2-yl]-4,5,6,7,8,9-hexahydro-1H-4,8-epiminocycloocta[c]pyrazole], the “Selectivity Ratio (Notch IC50/Aβ ED50)” value was “(+++) ((+++) means a ratio from about 150 to about 199)”.

For the molecule `O=S(=O)(c1ccc(C(F)(F)F)nc1)N1C2Cc3[nH]ncc3C1CC(c1ccc(F)cc1)C2` (racemic) [(±)-endo-6-(4-fluorophenyl)-10-{[6-(trifluoromethyl)pyridin-] [(±)-endo-6-(4-fluorophenyl)-10-{[6-(trifluoromethyl)pyridin-3-yl]sulfonyl}-4,5,6,7,8,9-hexahydro-1H-4,8-epiminocycloocta[c]pyrazole], the “Selectivity Ratio (Notch IC50/Aβ ED50)” value is listed as “(++) ((++) means a ratio from about 100 to about 149)”.

Consider `O=S(=O)(c1ccc(C(F)(F)F)nc1)N1C2Cc3[nH]ncc3C1CC(c1ccc(F)cc1)C2` (racemic) [(±)-exo-6-(4-fluorophenyl)-10-{[6-(trifluoromethyl)pyridin-3] [(±)-exo-6-(4-fluorophenyl)-10-{[6-(trifluoromethyl)pyridin-3-yl]sulfonyl}-4,5,6,7,8,9-hexahydro-1H-4,8-epiminocycloocta[c]pyrazole], for which the “Selectivity Ratio (Notch IC50/Aβ ED50)” value was “(+++) ((+++) means a ratio from about 150 to about 199)”.

For the molecule `O=S(=O)(c1ccc(C(F)(F)F)cc1)N1C2c3cn[nH]c3C(F)C1c1cccc(F)c12` (single isomer, unassigned; (+)) [(+)-5,10-difluoro-11-{[4-(trifluoromethyl)phenyl]sulfonyl}-1,4,9,10-tetrahydro-4,9-epiminobenzo[4,5]cyclohepta[1,2-c]pyrazole], the “Selectivity Ratio (Notch IC50/Aβ ED50)” value was “(++) ((++) means a ratio from about 100 to about 149)”.

`O=S(=O)(c1ccc(C(F)(F)F)cc1)N1C2c3ccccc3C1C(O)c1[nH]ncc12` (single isomer, unassigned; (+)) [(+)-endo-11-{[4-(trifloromethyl)phenyl]sulfonyl}-1,4,9,10-tetrahydro-4,9-epiminobenzo[4,5]cyclohepta[1,2-c]pyrazol-10-ol]: the “Selectivity Ratio (Notch IC50/Aβ ED50)” value is “(+++) ((+++) means a ratio from about 150 to about 199)”.

Turning to `O=C1c2[nH]ncc2C2c3c(F)cccc3C1N2S(=O)(=O)c1ccc(C(F)(F)F)nc1` (single isomer, unassigned; (-)) [(−)-5-fluoro-11-{[6-(trifluoromethyl)pyridin-3-yl]sulfonyl}-4,9-dihydro-4,9-epiminobenzo[4,5]cyclohepta[1,2-c]pyrazol-10(1H)-one], the “Selectivity Ratio (Notch IC50/Aβ ED50)” value was “(++++) ((++++) means a ratio of Notch IC50/Aβ EC50 (determined as described in Example D) of >200)”.

In the case of `O=S(=O)(c1ccc(C(F)(F)F)nc1)N1C2Cc3[nH]ncc3C1c1cc(Br)ccc12` (single isomer, unassigned; (-)) [(−)-6-bromo-11-{[6-(trifluoromethyl)pyridin-3-yl]sulfonyl}-1,4,9,10-tetrahydro-4,9-epiminobenzo[4,5]cyclohepta[1,2-c]pyrazole], the “Selectivity Ratio (Notch IC50/Aβ ED50)” value is on record as “(+) ((+) means a ratio from about 50 to about 99)”.

Take `O=C1c2[nH]ncc2C2c3cccc(F)c3C1N2S(=O)(=O)c1ccc(C(F)(F)F)nc1` (single isomer, unassigned; (-)) [(−)-8-fluoro-11-{[6-(trifluoromethyl)pyridin-3-yl]sulfonyl}-4,9-dihydro-4,9-epiminobenzo[4,5]cyclohepta[1,2-c]pyrazol-10(1H)-one]: the “Selectivity Ratio (Notch IC50/Aβ ED50)” value is “(++++) ((++++) means a ratio of Notch IC50/Aβ EC50 (determined as described in Example D) of >200)”.
